# Target: T1, LuxS (Streptococcus suis, UniProt B2CMA5)
# T1 construct: recombinant from pET28-luxS in E. coli BL21(DE3), HisTrap purified
# Experiment: Ellman assay of homocysteine, […] nm, Michaelis-Menten fit
# Type: biochemical
# Conditions: SRH as substrate, 6.25-25 ug/ml PF, pH 7.2, 37 °C; competitive; partial inhibition
# T1 sequence (B2CMA5 entry or part of it): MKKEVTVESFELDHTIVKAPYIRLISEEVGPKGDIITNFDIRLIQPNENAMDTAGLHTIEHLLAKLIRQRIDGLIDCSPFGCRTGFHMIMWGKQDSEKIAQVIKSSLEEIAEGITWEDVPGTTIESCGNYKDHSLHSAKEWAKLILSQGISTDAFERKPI
smiles,measurement,value
"C[C@@]12C[C@@]3(O)O[C@@H](O1)[C@]1(COC(=O)c4ccccc4)[C@H]3C[C@@]12O[C@@H]1O[C@H](CO)[C@@H](O)[C@H](O)[C@H]1O [PF, paeoniflorin]","Ellman assay of homocysteine, 412 nm, Michaelis-Menten fit","the Km value of LuxS gradually increases, although the maximum reaction rate does not change"

# Reference: paper PMC8923065, “Paeoniflorin reduce luxS/AI-2 system-controlled biofilm formation and virulence in Streptococcus suis” (Virulence, 2021)
